In patent publication US11884675B2, “Heterocyclic compounds as triggering receptor expressed on myeloid cells 2 agonists and methods of use” (AMGEN INC., priority 2020, dated 2024):
pEC50: −log10 of the molar value.

Molecular target: hTREM2 (Homo sapiens, UniProt Q9NZC2)
Assay: TREM2 activity by cellular Syk phosphorylation (AlphaScreen/AlphaLISA) in TREM2/DAP12-HEK cells, used for Examples 1-305
Format: cell-based
Design: expressed in transfected cells
Conditions: HEK293 Cells
Excerpt: In vitro Measurement of Triggering Receptor Expressed on Myeloid Cells 2 activity using cellular phosphorylation of Spleen Tyrosine Kinase (“Syk”) Assays used for Examples 1-305
Pharmacological measurements of TREM2 signaling through DAP12 were made with TREM2 and DAP12 overexpressing HEK293 cells stable cell lines that had been single-cell cloned (“TREM2/DAP12-HEK”). The readout of the TREM2 signaling utilized Perkin Elmer AlphaScreen/AlphaLISA technology monitoring the phosphorylation levels of the Syk kinase. TREM2/DAP12-HEK cell lines were cultured in DMEM-F12 (Corning 10-092-CM) supplemented with 1X Penicillin/Streptomycin (Corning 30-002-CI), 1X GlutaMAX (Gibco 35050-061), and 10% Fetal Bovine Serum (Life Technologies 10099) referred to as “HEK Culture Medium”. Suspensions of TREM2/DAP12-HEK cells were prepared in HEK Culture Medium and dispensed into 384-well poly-D-lysine coated microplates (Corning 354661) at a density of 20,000 cells/well using a Multidrop Combi peristaltic microplate dispenser (Thermo), 25 μL volume of cell suspension/well. Plates containing cells were then incubated for 20 hours in a humidified cell culture incubator at 37° C. with 5% CO2 (Thermo). After incubation, culture medium was removed from all wells of each microplate and replaced with 20 μL of “Assay Buffer” comprised of DMEM-F12 (Corning 10-092-CM) supplemented with 1X Penicillin/Streptomycin (Corning 30-002-CI) and 0.1% Pluronic F-68 Polyol (MP Biomedical 092750049) using a Bravo 384-well pipette-based liquid handling system (Agilent). Assay Buffer contained diluted test articles (in 1% final DMSO concentration for compounds) or 100 nM anti-human/mouse TREM2 antibody (R&D Systems MAB17291) as a positive control, or 100 nM or rat IgG2B isotype Ab as a negative control (R&D Systems MAB0061). The plates were incubated with test articles and controls for 45 minutes at room temperature and then the medium was aspirated/removed from each well of the plates. A Multidrop Combi peristaltic liquid handler (Thermo) was used to dispense 15 μL/well of “Cell Lysis Immunoassay Buffer”. The Cell Lysis Immunoassay Buffer contained M-PER Mammalian Protein Extraction Reagent (Pierce/ThermoFisher 78505), 1X Halt Phosphatase Inhibitor Cocktail (ThermoFisher #78427), 0.1875 nM anti-phospho-Syk (Tyr525/526) (C87C1) rabbit mAb (Cell Signaling Technologies catalog #2710), and 1.5 nM biotinylated Mouse anti-human Syk (4D10) antibody (BD Biosciences, catalog #624008). Plates were incubated for 1 hour at room temperature after the addition of the Cell Lysis Immunoassay Buffer. The Multidrop Combi liquid handler was used to dispense 15 μL of AlphaScreen Acceptor Bead Solution containing 7.5 μg/mL anti-rabbit IgG (Fc specific) AlphaLISA Acceptor Beads (Perkin Elmer AL104R) in 1X Immunoassay buffer (Perkin Elmer AL000F) to each well of the microplates. The plates were incubated for 2 hours at room temperature. Following the incubation with the AlphaLISA Acceptor Bead Solution, a Multidrop Combi liquid handler (Thermo) was used to dispense 15 μL of AlphaScreen Donor Bead Solution containing 30 μg/mL of AlphaScreen Streptavidin Donor beads (Perkin Elmer 6760002B) in 1X Immunoassay buffer (Perkin Elmer AL000F) to each well of the microplates. Microplates were incubated for 2 hours protected from light sources as the AlphaScreen reagents are light sensitive. Once the final incubation was completed, an AlphaScreen signal was acquired from the donor and acceptor beads using an Envision high throughput multi-modal microplate reader (Perkin Elmer) calibrated to the plate type with the AlphaScreen mirror and filter-set in 384-well mode, 680 nanometer excitation wavelength. The total measurement time per well was 550 milliseconds with a 180 millisecond excitation time. […]

Sequence of hTREM2 (Q9NZC2 19-230): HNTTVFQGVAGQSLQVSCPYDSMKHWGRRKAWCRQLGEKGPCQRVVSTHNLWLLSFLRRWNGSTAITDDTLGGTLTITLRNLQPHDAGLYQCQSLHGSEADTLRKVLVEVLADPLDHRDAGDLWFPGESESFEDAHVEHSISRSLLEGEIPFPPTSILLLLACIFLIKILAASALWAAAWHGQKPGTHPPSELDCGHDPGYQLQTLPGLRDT
Sequence of hTREM2 (O43914 22-113 partner): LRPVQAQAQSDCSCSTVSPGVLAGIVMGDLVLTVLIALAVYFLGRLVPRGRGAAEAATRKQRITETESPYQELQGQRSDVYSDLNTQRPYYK

SMILES | pEC50 | hTREM2 Emax
Cc1cc([C@@H]2C[C@H](c3nc4nc(C)c(C)nc4c([C@H]4C[C@H](C(F)(F)F)C4)n3)CCO2)ccn1 (single isomer, unassigned) [Example 214] | 6.30 to 7.30 | ++++ (Emax>250)
Cc1cc([C@H]2C[C@@H](c3nc4nc(C)c(C)nc4c([C@H]4C[C@H](C(F)(F)F)C4)n3)CCO2)ccn1 (single isomer, unassigned) [Example 215] | ≥ 7.30 | +++ (Emax>150 and ≤250)
Cc1nc2nc([C@H]3C[C@@H](C)O[C@@H](c4cnn(C)c4)C3)nc(-c3ccc(Cl)cc3F)c2nc1C (single isomer, unassigned) [Example 216] | ≥ 7.30 | +++ (Emax>150 and ≤250)
Cc1cc([C@H]2C[C@@H](c3cc4nc(C)c(C)nc4c(-c4ccc(Cl)cc4F)n3)CCO2)ccn1 (single isomer, unassigned) [Example 218] | ≥ 7.30 | +++ (Emax>150 and ≤250)
Cc1cc2c(-c3ccc(Cl)cc3F)nc([C@H]3CCO[C@@H](c4cnn(C)c4)C3)nc2nc1C (single isomer, unassigned) [Example 224] | ≥ 7.30 | +++ (Emax>150 and ≤250)
Cc1cc2c(-c3ccc(Cl)cc3F)nc([C@@H]3CCO[C@@H](c4cnn(C)c4)C3)nc2nc1C (single isomer, unassigned) [Example 225] | 6.30 to 7.30 | +++ (Emax>150 and ≤250)
Cc1cc2c(-c3ccc(Cl)cc3F)nc([C@@H]3CCO[C@H](c4cnn(C)c4)C3)nc2nc1C (single isomer, unassigned) [Example 226] | 6.30 to 7.30 | +++ (Emax>150 and ≤250)
Cc1cc2c(-c3ccc(Cl)cc3F)nc([C@H]3C[C@@H](C)O[C@@H](c4cnn(C)c4)C3)nc2nc1C (single isomer, unassigned) [Example 229] | ≥ 7.30 | +++ (Emax>150 and ≤250)
Cc1nc2cc([C@H]3C[C@@H](C)O[C@@H](c4cnn(C)c4)C3)nc(-c3ccc(Cl)cc3F)c2nc1C (single isomer, unassigned) [Example 230] | 6.30 to 7.30 | ++++ (Emax>250)
Cc1nc2nc(C3CCO[C@H](c4cnn(C)c4)C3)nc(-c3ccc(Cl)cc3F)c2nc1C (stereo in doubt) [Example 276, 4-(4-chloro-2-fluorophenyl)-6,7-dimethyl-2-((2S,4R)-2-(1-methyl-1H-pyrazol-4-yl)tetrahydro-2H-pyran-4-yl)pteridine] | 6.30 to 7.30 | ++++ (Emax>250)

Second part, the molecule after the results:

pEC50 | hTREM2 Emax | SMILES
6.30 to 7.30 | ++++ (Emax>250) | Cc1cc([C@H]2C[C@H](c3nc(-c4ccc(Cl)cc4F)c4ccc(C)nc4n3)CCO2)ccn1 (single isomer, unassigned) [Example 219]
6.30 to 7.30 | +++ (Emax>150 and ≤250) | Cc1cc([C@@H]2C[C@@H](c3nc(-c4ccc(Cl)cc4F)c4ccc(C)nc4n3)CCO2)ccn1 (single isomer, unassigned) [Example 220]
5.52 to 6.30 | – | Cc1cc([C@@H]2C[C@@H](c3nc(-c4ccc(F)cc4F)c4ccc(C)nc4n3)CCO2)ccn1 (single isomer, unassigned) [Example 221]
≥ 7.30 | ++++ (Emax>250) | Cc1ccc(-c2nc([C@H]3CCO[C@@H](c4ccnc(C)c4)C3)nc3nc(C)c(C)cc23)c(F)c1 (single isomer, unassigned) [Example 222]
6.30 to 7.30 | ++++ (Emax>250) | Cc1ccc(-c2nc([C@@H]3CCO[C@H](c4ccnc(C)c4)C3)nc3nc(C)c(C)cc23)c(F)c1 (single isomer, unassigned) [Example 223]
≥ 7.30 | +++ (Emax>150 and ≤250) | Cc1cc([C@@H]2C[C@@H](c3nc(-c4ccc(F)cc4F)c4cc(C)c(C)nc4n3)CCO2)ccn1 (single isomer, unassigned) [Example 227]
≥ 7.30 | +++ (Emax>150 and ≤250) | Cc1cc([C@H]2C[C@H](c3nc(-c4ccc(F)cc4F)c4cc(C)c(C)nc4n3)CCO2)ccn1 (single isomer, unassigned) [Example 228]
